Measured values taken from patent US20150335657A1, “Methods for Modulating Sirtuin Enzymes” (The Trustees of Princeton University, priority 2014, published 2015).

How the values were obtained:
SIRT3 = molecular target: T1, SIRT3 (Homo sapiens, UniProt Q9NTG7); assay: Sirtuin deacetylase enzyme activity assay (Cayman Chemical), compound screen; assay type: biochemical; settings: compound at 50 μM; Z-score of change in fluorescent signal; + increase, − decrease
T1 construct: purchased Cayman Chemical
T1 sequence (Q9NTG7 1-399): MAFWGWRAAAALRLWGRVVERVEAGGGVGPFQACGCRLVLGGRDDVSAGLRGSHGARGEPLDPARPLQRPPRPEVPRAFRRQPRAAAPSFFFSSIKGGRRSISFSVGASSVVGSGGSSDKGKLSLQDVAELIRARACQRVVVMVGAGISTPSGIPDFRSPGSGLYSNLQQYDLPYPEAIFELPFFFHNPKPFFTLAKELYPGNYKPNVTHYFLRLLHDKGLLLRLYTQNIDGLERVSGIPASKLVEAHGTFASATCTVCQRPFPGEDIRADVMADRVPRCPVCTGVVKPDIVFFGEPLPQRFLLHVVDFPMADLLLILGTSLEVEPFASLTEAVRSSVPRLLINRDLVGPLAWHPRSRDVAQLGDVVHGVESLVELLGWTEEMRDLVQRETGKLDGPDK
Source text: (§1) Sirtuins have been identified as innate viral restriction factors and it has been previously shown that drugs that modulate the activity of these enzymes block the production of multiple viruses in culture (see, e.g., WO 2012/106509). Sirtuins are NAD-dependent enzymes that regulate the activity of target proteins by post-translational modifications and thereby control key cellular events (see, e.g., Haigis and Sinclair (2010) Ann Rev Pathol Mech Dis 5:253-95). SIRT1, SIRT2, SIRT3 and SIRT6 have shown a detectable deacetylase activity in well-established biochemical assays that utilize recombinant SIRT1, SIRT2, SIRT3, and SIRT6 enzymes and fluorophore-conjugated acetyl-peptides. As described in the Examples below, the deacetylase activity of these sirtuins were used as a surrogate to identify compounds having broad-range antiviral activity.
(§2) A publically disclosed, small molecule library consisting of approximately 13,000 compounds was screened using a commercially available (Cayman Chemical) enzyme activity assay. Deacetylase activity of sirtuins SIRT1, SIRT2, SIRT3, and SIRT6 was used as a surrogate to identify compounds with the potential for having broad-range antiviral activity. The compounds were tested at a single concentration (50 μM) in microtiter plates and their activity against the four sirtuins was recorded as a change in fluorescent signal intensity. […] Activation of sirtuin activity generated positive Z-scores and inhibition of sirtuin activity produced negative Z-scores.

SIRT2 = molecular target: T2, SIRT2 (Homo sapiens, UniProt Q8IXJ6); assay: as above; assay type: biochemical; settings: compound at 50 μM; Z-score of change in fluorescent signal; + increase, − decrease
T2 construct: purchased Cayman Chemical
T2 sequence (Q8IXJ6 1-389): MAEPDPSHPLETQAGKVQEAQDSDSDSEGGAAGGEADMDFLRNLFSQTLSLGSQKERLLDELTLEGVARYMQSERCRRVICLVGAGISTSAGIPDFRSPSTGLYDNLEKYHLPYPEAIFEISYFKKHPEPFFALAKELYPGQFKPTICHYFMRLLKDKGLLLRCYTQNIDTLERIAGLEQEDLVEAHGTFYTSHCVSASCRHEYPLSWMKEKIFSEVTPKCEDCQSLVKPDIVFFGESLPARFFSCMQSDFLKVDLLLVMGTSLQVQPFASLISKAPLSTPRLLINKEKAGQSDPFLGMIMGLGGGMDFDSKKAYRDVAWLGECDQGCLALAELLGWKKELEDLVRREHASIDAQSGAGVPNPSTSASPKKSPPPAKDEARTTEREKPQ
Source text: as §1, §2

SIRT6 = molecular target: T3, SIRT6 (Homo sapiens, UniProt Q8N6T7); assay: as above; assay type: biochemical; settings: compound at 50 μM; Z-score of change in fluorescent signal; + increase, − decrease
T3 construct: purchased Cayman Chemical
T3 sequence (Q8N6T7 whole entry): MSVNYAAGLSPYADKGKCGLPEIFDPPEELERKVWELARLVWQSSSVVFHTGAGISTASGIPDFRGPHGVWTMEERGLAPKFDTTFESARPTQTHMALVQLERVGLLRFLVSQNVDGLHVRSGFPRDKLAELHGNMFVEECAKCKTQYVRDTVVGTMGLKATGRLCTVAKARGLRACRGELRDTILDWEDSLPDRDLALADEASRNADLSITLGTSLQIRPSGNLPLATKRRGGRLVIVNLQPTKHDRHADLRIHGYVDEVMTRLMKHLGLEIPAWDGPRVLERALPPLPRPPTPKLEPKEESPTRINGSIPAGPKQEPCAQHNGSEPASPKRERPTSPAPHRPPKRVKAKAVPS
Source text: as §1, §2

SIRT1 = molecular target: T4, SIRT1 (Homo sapiens, UniProt Q96EB6); assay: as above; assay type: biochemical; settings: compound at 50 μM; Z-score of change in fluorescent signal; + increase, − decrease
T4 construct: purchased Cayman Chemical
T4 sequence (Q96EB6 1-747): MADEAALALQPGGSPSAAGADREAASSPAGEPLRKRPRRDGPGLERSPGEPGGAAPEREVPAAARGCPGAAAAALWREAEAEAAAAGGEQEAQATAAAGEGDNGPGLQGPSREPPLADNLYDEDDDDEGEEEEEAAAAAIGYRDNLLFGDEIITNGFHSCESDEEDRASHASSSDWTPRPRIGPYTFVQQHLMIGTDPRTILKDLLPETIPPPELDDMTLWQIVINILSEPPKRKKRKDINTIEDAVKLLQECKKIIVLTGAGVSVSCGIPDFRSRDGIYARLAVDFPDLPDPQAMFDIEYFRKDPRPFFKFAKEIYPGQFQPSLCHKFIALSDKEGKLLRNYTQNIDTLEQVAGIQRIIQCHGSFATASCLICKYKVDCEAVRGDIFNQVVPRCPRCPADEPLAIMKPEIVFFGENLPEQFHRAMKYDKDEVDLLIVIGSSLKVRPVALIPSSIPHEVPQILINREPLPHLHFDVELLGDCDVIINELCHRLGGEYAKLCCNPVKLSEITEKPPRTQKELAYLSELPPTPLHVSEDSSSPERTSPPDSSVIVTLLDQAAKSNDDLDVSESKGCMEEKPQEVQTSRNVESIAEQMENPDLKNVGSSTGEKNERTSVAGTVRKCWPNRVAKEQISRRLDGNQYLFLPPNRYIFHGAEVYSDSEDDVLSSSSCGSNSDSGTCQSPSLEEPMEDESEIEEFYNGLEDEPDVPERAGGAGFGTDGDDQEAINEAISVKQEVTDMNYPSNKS
Source text: as §1, §2

[1] = tested on: human cytomegalovirus (HCMV) AD169 strain; assay: Antiviral activity against HCMV in MRC5 fibroblasts (virus yield, fluorescent focus assay); assay type: cell-based; settings: Human betaherpesvirus 5, HCMV AD169, 1 infectious unit/cell, treated 2 h after infection, virus in medium at 96 h
[2] = Tetrazolium-based cell viability assay (cytotoxicity); settings: human

Structure (SMILES) | SIRT3 (change in sirtuin deacetylase activity, Z-score class) (SIRT3) | SIRT2 (change in sirtuin deacetylase activity, Z-score class) (SIRT2) | SIRT6 (change in sirtuin deacetylase activity, Z-score class) (SIRT6) | SIRT1 (change in sirtuin deacetylase activity, Z-score class) (SIRT1) | IC50 [1] | IC90 [1] | CC50 at 96 h [2]
CC(CCNc1cccnc1)c1c[nH]c2ccccc12 (stereo not drawn) | na (−2 ≦ Z-score < 2 = no activity (na)) | +++ (Z-score ≧ 3 = +++) | na (−2 ≦ Z-score < 2 = no activity (na)) | na (−2 ≦ Z-score < 2 = no activity (na)) | 15.8 µM | 43.1 µM | > 50 µM
COc1ccc2[nH]cc(C(C)CCNc3cccnc3)c2c1 (stereo not drawn) | na (−2 ≦ Z-score < 2 = no activity (na)) | +++ (Z-score ≧ 3 = +++) | na (−2 ≦ Z-score < 2 = no activity (na)) | na (−2 ≦ Z-score < 2 = no activity (na)) | 17.4 µM | 46.5 µM | > 50 µM
CCN1CC(C(C)c2ccc(C)nc2)Oc2ccc(C(F)(F)F)cc2C1=O (stereo not drawn) | na (−2 ≦ Z-score < 2 = no activity (na)) | +++ (Z-score ≧ 3 = +++) | na (−2 ≦ Z-score < 2 = no activity (na)) | na (−2 ≦ Z-score < 2 = no activity (na)) | 18.4 µM | 42.3 µM | > 50 µM
CC(c1ccccc1F)C(O)CNc1ccc(O)nc1 (stereo not drawn) | +++ (Z-score ≧ 3 = +++) | na (−2 ≦ Z-score < 2 = no activity (na)) | +++ (Z-score ≧ 3 = +++) | na (−2 ≦ Z-score < 2 = no activity (na)) | 19.4 µM | 44 µM | > 50 µM
CC(c1ccnn1C)C(CN1CCN(C)CC1)Oc1ccc(C#N)cn1 (stereo not drawn) | na (−2 ≦ Z-score < 2 = no activity (na)) | na (−2 ≦ Z-score < 2 = no activity (na)) | +++ (Z-score ≧ 3 = +++) | −− (−3 < Z-score ≦ −2 = −−) | 21.1 µM | 42.4 µM | > 50 µM
COc1ccccc1C1C(=O)N(C(C)C)CC1O (stereo not drawn) | na (−2 ≦ Z-score < 2 = no activity (na)) | +++ (Z-score ≧ 3 = +++) | na (−2 ≦ Z-score < 2 = no activity (na)) | na (−2 ≦ Z-score < 2 = no activity (na)) | 23.9 µM | 47.2 µM | > 50 µM
CC(C)c1cc(N)n(C(C(=O)O)C(C)c2ccccc2Cl)n1 (stereo not drawn) | na (−2 ≦ Z-score < 2 = no activity (na)) | −− (−3 < Z-score ≦ −2 = −−) | na (−2 ≦ Z-score < 2 = no activity (na)) | −− (−3 < Z-score ≦ −2 = −−) | 25.5 µM | 57.9 µM | > 50 µM
COc1cccc(C(C)C(O)Cn2cc(-c3cc(Cl)cnc3N)nn2)c1 (stereo not drawn) | na (−2 ≦ Z-score < 2 = no activity (na)) | na (−2 ≦ Z-score < 2 = no activity (na)) | +++ (Z-score ≧ 3 = +++) | +++ (Z-score ≧ 3 = +++) | 26.2 µM | 44.3 µM | > 50 µM
COc1ccc(C(C)C(CN2CCc3ccccc3C2)n2nc(-c3cccnc3)cc2N)cc1 (stereo not drawn) | na (−2 ≦ Z-score < 2 = no activity (na)) | −− (−3 < Z-score ≦ −2 = −−) | na (−2 ≦ Z-score < 2 = no activity (na)) | −−− (Z-score ≦ −3 = −−−) | 27.7 µM | 55.7 µM | > 50 µM
